Test results as given in ChEMBL document CHEMBL5154816, “Structure-Based Discovery and Optimization of Furo[3,2-c]pyridin-4(5H)-one Derivatives as Potent and Second Bromodomain (BD2)-Selective Bromo and Extra Terminal Domain (BET) Inhibitors” (J Med Chem, 2022).

Test system: not listed separately
Test: Metabolic stability in human liver microsomes assessed as intrinsic clearance at 1 uM measured up to 60 mins in presence of NADPH by HPLC-MS/MS analysis
Format: ADME, Microsome
Details: 1 h

SMILES | CLH
O=C(c1ccc(F)cc1)C1CCN(CCn2c(=O)[nH]c3ccccc3c2=O)CC1 [KETANSERIN] | 0.051 mL/min/g

Test system: not listed separately
Test: Metabolic stability in human hepatocytes assessed as hepatic extraction ratio at 1 uM measured up to 60 mins in presence of NADPH by HPLC-MS/MS analysis
Format: ADME, cell-based, Hepatocyte
Details: read-out: ERH

SMILES | hepatic extraction ratio at 1 h, 1 µM
O=C(c1ccc(F)cc1)C1CCN(CCn2c(=O)[nH]c3ccccc3c2=O)CC1 [KETANSERIN] | 0.712

Test system: not listed separately
Test: Cytotoxicity against human HFL1 cells assessed as cell growth inhibition incubated for 72 hrs by Cell titre Glo-luminiscence cell viability assay
Format: toxicity, cell-based
Details: not given

SMILES | IC50 at 72 h
CCS(=O)(=O)Nc1ccc(Oc2ccc(F)cc2F)c(-c2cn(C)c(=O)c3cc(-c4cc(C)c(OCCO)c(C)c4)oc23)c1 | < 10 nM

Test system: not listed separately
Test: Metabolic stability in human liver microsomes assessed as half life at 1 uM measured up to 60 mins in presence of NADPH by HPLC-MS/MS analysis
Format: ADME, Microsome
Details: not given

SMILES | half-life at 1 µM
O=C(c1ccc(F)cc1)C1CCN(CCn2c(=O)[nH]c3ccccc3c2=O)CC1 [KETANSERIN] | 34 min

Test system: not listed separately
Test: Metabolic stability in rat liver microsomes assessed as intrinsic clearance at 1 uM measured up to 60 mins in presence of NADPH by HPLC-MS/MS analysis
Format: ADME, Microsome
Details: 1 h

SMILES | CLH
O=C(c1ccc(F)cc1)C1CCN(CCn2c(=O)[nH]c3ccccc3c2=O)CC1 [KETANSERIN] | 0.131 mL/min/g

Biological target: PH-interacting protein (Homo sapiens) (UniProt Q8WWQ0)
Test: Binding affinity to PHIP-2 (unknown origin) assessed as change in melting temperature at 100 uM incubated for 30 mins by thermal shift assay
Details: not given

SMILES | ΔTm
Cc1sc2c(c1C)C(c1ccc(Cl)cc1)=N[C@@H](CC(=O)OC(C)(C)C)c1nnc(C)n1-2 | -1 °C

Test system: not listed separately
Test: Metabolic stability in human hepatocytes assessed as hepatic clearance at 1 uM measured up to 60 mins in presence of NADPH by HPLC-MS/MS analysis
Format: ADME, cell-based, Hepatocyte
Details: not given

SMILES | CLhep predicted at 1 µM
O=C(c1ccc(F)cc1)C1CCN(CCn2c(=O)[nH]c3ccccc3c2=O)CC1 [KETANSERIN] | 14.7 mL/min/kg

Biological target: T1, Bromodomain-containing protein 4 (Homo sapiens, UniProt O60885)
Test: Inhibition of C-terminal His6-tagged BRD4 BD2 (unknown origin) using H-YSGRGK(Ac)GGK(Ac)GLGK(Ac)-GGAK(Ac)RHRK-Biotin-OH as substrate incubated for 1 hrs by HTRF assay
Details: not given

SMILES | IC50
CCS(=O)(=O)Nc1ccc(Oc2ccc(F)cc2F)c(-c2cn(C)c(=O)c3cc(-c4cc(C)cc(C)c4)oc23)c1 | 3.7 nM
CCS(=O)(=O)Nc1ccc(Oc2c(C)cccc2C)c(-c2cn(C)c(=O)c3cc(-c4cc(C)c(OCCO)c(C)c4)oc23)c1 | 1.3 nM
CCS(=O)(=O)Nc1ccc(Oc2ccc(F)cc2F)c(-c2cn(C)c(=O)c3cc(-c4cc(C)c(CCCO)c(C)c4)oc23)c1 | 0.49 nM
CCc1ncc(-c2cc3c(=O)n(C)cc(-c4cc(NS(=O)(=O)CC)ccc4Oc4ccc(F)cc4F)c3o2)[nH]1 | 0.5 nM
CCS(=O)(=O)Nc1ccc(Oc2ccc(F)cc2F)c(-c2cn(C)c(=O)c3cc(-c4cc(C)c(OCCO)c(C)c4)oc23)c1 | 0.6 nM
CC(=O)Nc1ccc(Oc2ccc(F)cc2F)c(-c2cn(C)c(=O)c3cc(-c4cc(C)c(OCCO)c(C)c4)oc23)c1 | 0.83 nM
Cc1cc(F)cc(C)c1Oc1ccc(C(C)(C)O)cc1-c1cn(C)c(=O)c2cc(-c3cnc(C4CCOC4)[nH]3)oc12 (stereo unspecified) | 0.6 nM
CCS(=O)(=O)Nc1ccc(Oc2ccc(F)cc2F)c(-c2cn(C)c(=O)c3cc(-c4cnc(C(C)C)[nH]4)oc23)c1 | 0.54 nM
CCS(=O)(=O)Nc1ccc(Oc2ccc(F)cc2F)c(-c2cn(C)c(=O)c3cc(-c4cnc(C5CC5)[nH]4)oc23)c1 | 0.34 nM
Cc1cc(-c2cc3c(=O)n(C)cc(-c4cc(CO)ccc4Oc4ccc(F)cc4F)c3o2)cc(C)c1OCCO | 0.98 nM
CCCS(=O)(=O)Nc1ccc(Oc2ccc(F)cc2F)c(-c2cn(C)c(=O)c3cc(-c4cc(C)c(OCCO)c(C)c4)oc23)c1 | 0.65 nM
Cc1cc(-c2cc3c(=O)n(C)cc(-c4cc(NC(=O)C(C)C)ccc4Oc4ccc(F)cc4F)c3o2)cc(C)c1OCCO | 1.9 nM
CCS(=O)(=O)Nc1ccc(Oc2ccc(F)cc2F)c(-c2cn(C)c(=O)c3cc(-c4cnc(C5CCCC5)[nH]4)oc23)c1 | 0.91 nM
CCS(=O)(=O)Nc1ccc(Oc2ccc(F)cc2F)c(-c2cn(C)c(=O)c3cc(-c4ccccc4)oc23)c1 | 1.5 nM
Cc1cc(-c2cc3c(=O)n(C)cc(-c4cc(NS(=O)(=O)C(C)C)ccc4Oc4ccc(F)cc4F)c3o2)cc(C)c1OCCO | 0.94 nM
Cc1cc(F)cc(C)c1Oc1ccc(C(C)(C)O)cc1-c1cn(C)c(=O)c2cc(-c3cnc(C(C)C)[nH]3)oc12 | 0.68 nM
CCS(=O)(=O)Nc1ccc(Oc2c(F)cc(F)cc2F)c(-c2cn(C)c(=O)c3cc(-c4cc(C)c(OCCO)c(C)c4)oc23)c1 | 0.49 nM
CCS(=O)(=O)Nc1ccc(Oc2ccc(F)cc2F)c(-c2cn(C)c(=O)c3cc(-c4ccc(OCCO)cc4)oc23)c1 | 0.62 nM

Biological target: SWI/SNF-related matrix-associated actin-dependent regulator of chromatin subfamily A member 2 (Homo sapiens) (UniProt P51531)
Sequence (P51531 whole entry): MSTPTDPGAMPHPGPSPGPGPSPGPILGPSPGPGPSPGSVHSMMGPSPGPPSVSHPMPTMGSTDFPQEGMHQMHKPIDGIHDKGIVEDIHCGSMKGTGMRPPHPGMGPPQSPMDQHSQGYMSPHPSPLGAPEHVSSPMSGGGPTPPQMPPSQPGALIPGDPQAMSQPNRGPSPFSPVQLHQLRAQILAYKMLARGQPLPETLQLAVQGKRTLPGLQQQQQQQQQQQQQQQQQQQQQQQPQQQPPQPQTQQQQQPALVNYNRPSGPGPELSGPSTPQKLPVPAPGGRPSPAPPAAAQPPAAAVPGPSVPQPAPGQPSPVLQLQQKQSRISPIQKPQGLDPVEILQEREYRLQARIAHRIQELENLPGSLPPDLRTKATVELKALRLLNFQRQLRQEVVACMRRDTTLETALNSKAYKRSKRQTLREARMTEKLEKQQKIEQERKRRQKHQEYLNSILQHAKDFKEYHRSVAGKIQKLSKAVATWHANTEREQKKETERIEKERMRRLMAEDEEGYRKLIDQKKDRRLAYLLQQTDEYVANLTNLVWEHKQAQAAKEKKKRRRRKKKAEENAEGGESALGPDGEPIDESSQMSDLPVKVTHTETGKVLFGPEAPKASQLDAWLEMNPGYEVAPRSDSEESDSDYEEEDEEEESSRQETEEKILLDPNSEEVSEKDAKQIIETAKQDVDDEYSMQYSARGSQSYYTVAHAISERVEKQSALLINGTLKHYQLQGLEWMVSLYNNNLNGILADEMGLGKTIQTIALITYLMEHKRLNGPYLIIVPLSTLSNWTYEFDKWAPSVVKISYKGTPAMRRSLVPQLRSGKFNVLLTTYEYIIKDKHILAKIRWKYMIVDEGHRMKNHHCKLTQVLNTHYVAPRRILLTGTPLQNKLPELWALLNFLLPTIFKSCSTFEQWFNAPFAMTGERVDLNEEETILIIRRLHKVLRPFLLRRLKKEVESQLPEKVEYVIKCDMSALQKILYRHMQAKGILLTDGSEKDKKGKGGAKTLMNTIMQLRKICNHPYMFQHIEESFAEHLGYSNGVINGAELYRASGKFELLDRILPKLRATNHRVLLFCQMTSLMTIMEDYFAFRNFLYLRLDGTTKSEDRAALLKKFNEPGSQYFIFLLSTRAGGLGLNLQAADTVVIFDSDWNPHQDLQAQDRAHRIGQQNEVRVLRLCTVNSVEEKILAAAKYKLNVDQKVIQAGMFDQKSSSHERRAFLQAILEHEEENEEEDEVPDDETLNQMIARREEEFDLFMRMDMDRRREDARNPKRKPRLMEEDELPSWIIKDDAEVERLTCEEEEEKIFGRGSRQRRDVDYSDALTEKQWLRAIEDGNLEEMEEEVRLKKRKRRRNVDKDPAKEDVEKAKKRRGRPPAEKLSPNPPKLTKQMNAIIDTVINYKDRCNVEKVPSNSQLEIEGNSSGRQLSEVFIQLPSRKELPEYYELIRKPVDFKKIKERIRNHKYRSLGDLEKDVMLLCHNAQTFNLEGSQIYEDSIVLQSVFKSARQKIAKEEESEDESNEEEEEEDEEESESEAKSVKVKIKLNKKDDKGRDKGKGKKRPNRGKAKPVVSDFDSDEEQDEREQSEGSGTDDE
Test: Binding affinity to SMARCA2A (unknown origin) assessed as change in melting temperature at 100 uM incubated for 30 mins by thermal shift assay
Details: not given

SMILES | ΔTm
Cc1sc2c(c1C)C(c1ccc(Cl)cc1)=N[C@@H](CC(=O)OC(C)(C)C)c1nnc(C)n1-2 | -0.25 °C

Biological target: T1, Bromodomain-containing protein 4
Test: Inhibition of C-terminal His6-tagged BRD4 BD1 (unknown origin) using H-YSGRGK(Ac)GGK(Ac)GLGK(Ac)-GGAK(Ac)RHRK-Biotin-OH as substrate incubated for 1 hrs by HTRF assay
Details: not given

SMILES | IC50
CCS(=O)(=O)Nc1ccc(Oc2ccc(F)cc2F)c(-c2cn(C)c(=O)c3cc(-c4cc(C)cc(C)c4)oc23)c1 | 6.1 nM
CCS(=O)(=O)Nc1ccc(Oc2c(C)cccc2C)c(-c2cn(C)c(=O)c3cc(-c4cc(C)c(OCCO)c(C)c4)oc23)c1 | 6 nM
CCS(=O)(=O)Nc1ccc(Oc2ccc(F)cc2F)c(-c2cn(C)c(=O)c3cc(-c4cc(C)c(CCCO)c(C)c4)oc23)c1 | 0.72 nM
CCc1ncc(-c2cc3c(=O)n(C)cc(-c4cc(NS(=O)(=O)CC)ccc4Oc4ccc(F)cc4F)c3o2)[nH]1 | 1.2 nM
CCS(=O)(=O)Nc1ccc(Oc2ccc(F)cc2F)c(-c2cn(C)c(=O)c3cc(-c4cc(C)c(OCCO)c(C)c4)oc23)c1 | 0.56 nM
CC(=O)Nc1ccc(Oc2ccc(F)cc2F)c(-c2cn(C)c(=O)c3cc(-c4cc(C)c(OCCO)c(C)c4)oc23)c1 | 0.52 nM
Cc1cc(F)cc(C)c1Oc1ccc(C(C)(C)O)cc1-c1cn(C)c(=O)c2cc(-c3cnc(C4CCOC4)[nH]3)oc12 (stereo unspecified) | 78 nM
CCS(=O)(=O)Nc1ccc(Oc2ccc(F)cc2F)c(-c2cn(C)c(=O)c3cc(-c4cnc(C(C)C)[nH]4)oc23)c1 | 0.95 nM
CCS(=O)(=O)Nc1ccc(Oc2ccc(F)cc2F)c(-c2cn(C)c(=O)c3cc(-c4cnc(C5CC5)[nH]4)oc23)c1 | 0.7 nM
Cc1cc(-c2cc3c(=O)n(C)cc(-c4cc(CO)ccc4Oc4ccc(F)cc4F)c3o2)cc(C)c1OCCO | 4.1 nM
CCCS(=O)(=O)Nc1ccc(Oc2ccc(F)cc2F)c(-c2cn(C)c(=O)c3cc(-c4cc(C)c(OCCO)c(C)c4)oc23)c1 | 0.94 nM
Cc1cc(-c2cc3c(=O)n(C)cc(-c4cc(NC(=O)C(C)C)ccc4Oc4ccc(F)cc4F)c3o2)cc(C)c1OCCO | 7.8 nM
CCS(=O)(=O)Nc1ccc(Oc2ccc(F)cc2F)c(-c2cn(C)c(=O)c3cc(-c4cnc(C5CCCC5)[nH]4)oc23)c1 | 4.1 nM
CCS(=O)(=O)Nc1ccc(Oc2ccc(F)cc2F)c(-c2cn(C)c(=O)c3cc(-c4ccccc4)oc23)c1 | 2.4 nM
Cc1cc(-c2cc3c(=O)n(C)cc(-c4cc(NS(=O)(=O)C(C)C)ccc4Oc4ccc(F)cc4F)c3o2)cc(C)c1OCCO | 1.4 nM
Cc1cc(F)cc(C)c1Oc1ccc(C(C)(C)O)cc1-c1cn(C)c(=O)c2cc(-c3cnc(C(C)C)[nH]3)oc12 | 192 nM
CCS(=O)(=O)Nc1ccc(Oc2c(F)cc(F)cc2F)c(-c2cn(C)c(=O)c3cc(-c4cc(C)c(OCCO)c(C)c4)oc23)c1 | 0.43 nM
CCS(=O)(=O)Nc1ccc(Oc2ccc(F)cc2F)c(-c2cn(C)c(=O)c3cc(-c4ccc(OCCO)cc4)oc23)c1 | 0.56 nM

Biological target: SWI/SNF-related matrix-associated actin-dependent regulator of chromatin subfamily A member 2 (Homo sapiens) (UniProt P51531)
Test: Binding affinity to SMARCA2B (unknown origin) assessed as change in melting temperature at 100 uM incubated for 30 mins by thermal shift assay
Details: not given

SMILES | ΔTm
Cc1sc2c(c1C)C(c1ccc(Cl)cc1)=N[C@@H](CC(=O)OC(C)(C)C)c1nnc(C)n1-2 | 0.25 °C

Test system: not listed separately
Test: Metabolic stability in rat hepatocytes assessed as hepatic extraction ratio at 1 uM measured up to 60 mins in presence of NADPH by HPLC-MS/MS analysis
Format: ADME, cell-based, Hepatocyte
Details: read-out: ERH

SMILES | hepatic extraction ratio at 1 h, 1 µM
O=C(c1ccc(F)cc1)C1CCN(CCn2c(=O)[nH]c3ccccc3c2=O)CC1 [KETANSERIN] | 0.81

Species on record: Homo sapiens
Test: Selectivity index, ratio of IC50 for BRD4 BD1 (unknown origin) to IC50 of BRD4 BD2 (unknown origin)
Details: not given

SMILES | Ratio IC50
CCS(=O)(=O)Nc1ccc(Oc2ccc(F)cc2F)c(-c2cn(C)c(=O)c3cc(-c4cc(C)cc(C)c4)oc23)c1 | 1.65
CCS(=O)(=O)Nc1ccc(Oc2c(C)cccc2C)c(-c2cn(C)c(=O)c3cc(-c4cc(C)c(OCCO)c(C)c4)oc23)c1 | 4.62
CCS(=O)(=O)Nc1ccc(Oc2ccc(F)cc2F)c(-c2cn(C)c(=O)c3cc(-c4cc(C)c(CCCO)c(C)c4)oc23)c1 | 1.47
CCc1ncc(-c2cc3c(=O)n(C)cc(-c4cc(NS(=O)(=O)CC)ccc4Oc4ccc(F)cc4F)c3o2)[nH]1 | 2.4
CCS(=O)(=O)Nc1ccc(Oc2ccc(F)cc2F)c(-c2cn(C)c(=O)c3cc(-c4cc(C)c(OCCO)c(C)c4)oc23)c1 | 0.93
CC(=O)Nc1ccc(Oc2ccc(F)cc2F)c(-c2cn(C)c(=O)c3cc(-c4cc(C)c(OCCO)c(C)c4)oc23)c1 | 0.63
Cc1cc(F)cc(C)c1Oc1ccc(C(C)(C)O)cc1-c1cn(C)c(=O)c2cc(-c3cnc(C4CCOC4)[nH]3)oc12 (stereo unspecified) | 130
CCS(=O)(=O)Nc1ccc(Oc2ccc(F)cc2F)c(-c2cn(C)c(=O)c3cc(-c4cnc(C(C)C)[nH]4)oc23)c1 | 1.76
CCS(=O)(=O)Nc1ccc(Oc2ccc(F)cc2F)c(-c2cn(C)c(=O)c3cc(-c4cnc(C5CC5)[nH]4)oc23)c1 | 2.06
Cc1cc(-c2cc3c(=O)n(C)cc(-c4cc(CO)ccc4Oc4ccc(F)cc4F)c3o2)cc(C)c1OCCO | 4.18
CCCS(=O)(=O)Nc1ccc(Oc2ccc(F)cc2F)c(-c2cn(C)c(=O)c3cc(-c4cc(C)c(OCCO)c(C)c4)oc23)c1 | 1.54
Cc1cc(-c2cc3c(=O)n(C)cc(-c4cc(NC(=O)C(C)C)ccc4Oc4ccc(F)cc4F)c3o2)cc(C)c1OCCO | 4.11
CCS(=O)(=O)Nc1ccc(Oc2ccc(F)cc2F)c(-c2cn(C)c(=O)c3cc(-c4cnc(C5CCCC5)[nH]4)oc23)c1 | 4.52
CCS(=O)(=O)Nc1ccc(Oc2ccc(F)cc2F)c(-c2cn(C)c(=O)c3cc(-c4ccccc4)oc23)c1 | 1.6
Cc1cc(-c2cc3c(=O)n(C)cc(-c4cc(NS(=O)(=O)C(C)C)ccc4Oc4ccc(F)cc4F)c3o2)cc(C)c1OCCO | 1.49
Cc1cc(F)cc(C)c1Oc1ccc(C(C)(C)O)cc1-c1cn(C)c(=O)c2cc(-c3cnc(C(C)C)[nH]3)oc12 | 282
CCS(=O)(=O)Nc1ccc(Oc2c(F)cc(F)cc2F)c(-c2cn(C)c(=O)c3cc(-c4cc(C)c(OCCO)c(C)c4)oc23)c1 | 0.88
CCS(=O)(=O)Nc1ccc(Oc2ccc(F)cc2F)c(-c2cn(C)c(=O)c3cc(-c4ccc(OCCO)cc4)oc23)c1 | 0.9

Test system: not listed separately
Test: Metabolic stability in rat liver microsomes assessed as half life at 1 uM measured up to 60 mins in presence of NADPH by HPLC-MS/MS analysis
Format: ADME, Microsome
Details: not given

SMILES | half-life at 1 µM
O=C(c1ccc(F)cc1)C1CCN(CCn2c(=O)[nH]c3ccccc3c2=O)CC1 [KETANSERIN] | 18.9 min

Test system: not listed separately
Test: Metabolic stability in rat hepatocytes assessed as hepatic clearance at 1 uM measured up to 60 mins in presence of NADPH by HPLC-MS/MS analysis
Format: ADME, cell-based, Hepatocyte
Details: not given

SMILES | CLhep predicted at 1 µM
O=C(c1ccc(F)cc1)C1CCN(CCn2c(=O)[nH]c3ccccc3c2=O)CC1 [KETANSERIN] | 25 mL/min/kg
